Data on 4 molecules can be found in patent US7138246B2, “Methods for identifying or screening for agents that modulate 17β-HSD3” (Bristol-Myers Squibb Company, priority 2004, dated 2006).

Like-named read-outs stand apart in the source and are kept apart here.

In series [1] the target is T1, 17β-HSD3 (Homo sapiens, UniProt P37058).
T1 sequence (P37058 1-310): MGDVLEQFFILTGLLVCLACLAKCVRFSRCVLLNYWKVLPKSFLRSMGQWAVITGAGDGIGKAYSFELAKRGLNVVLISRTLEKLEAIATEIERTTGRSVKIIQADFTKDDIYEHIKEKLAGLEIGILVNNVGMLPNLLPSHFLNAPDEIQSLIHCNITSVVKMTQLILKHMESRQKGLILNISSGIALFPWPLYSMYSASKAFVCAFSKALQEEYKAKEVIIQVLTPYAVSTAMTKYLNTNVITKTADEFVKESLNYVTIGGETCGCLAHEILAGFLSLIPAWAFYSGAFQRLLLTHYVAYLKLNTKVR
In words: 17β-HSD3 scintillation proximity assay (SPA). Type of series: biochemical. Also noted: made in house; CHAPS-solubilised 100,000 x g supernatant. As for the experimental part:
(§1) HEK293/17β-HSD3 cells were harvested by scraping or treatment with Cell Dissociation Buffer (Invitrogen) and collected in ice cold Phosphate Buffered Saline (PBS) containing a protease inhibitor cocktail (Complete Tabs, Roche Diagnostics). The cells were then pelleted by centrifugation at 1000 rpm and washed once more in the same buffer. The cells were then resuspended in 2× the cell pellet volume with ice cold lysis buffer (40 mM Tris-HCl pH7.5, 2 mM DTT, 1 mM EDTA, 10% Glycerol (v/v), 0.5% CHAPS (w/v), 1M 1-(3-sulfopropyl)pyridinium hydroxide, Complete Tab(s)) and dounce homogenized on ice. The crude lysate was then incubated on ice for 60 minutes to allow for membrane protein solubilization, followed by centrifugation at 100,000×g for 60 minutes at 4° C. The supernatant was then removed and dialyzed overnight at 4° C. against the enzyme storage buffer (40 mM Tris-HCl pH 7.5, 40 mM KCl, 2 mM DTT, 1 mM EDTA, 20% Glycerol (v/v), Complete Tab(s)). Protein concentration was determined by the Bradford assay, the enzyme was aliquotted, and stored at −80° C. Activity was assessed using the SPA described below.
SPA beads conjugated to anti-mouse IgG were incubated overnight in SPA Bead Buffer (50 mM Tris pH 8.0, 10% Glycerol (v/v)), with anti-Testosterone monoclonal antibody (2 μg antibody per 1 mg of SPA beads) under gentle rotation. The antibody saturated bead complex was then spun down at 500 rpm for 10 minutes at 4° C. and the beads were resuspended in SPA Bead Buffer at a final concentration of 0.5 mg/160 μL. The anti-T/SPA Beads were then stored at 4° C. until needed. Enzymatic assays were conducted in 30 μL total reaction volumes in 96-well white Optiplates (Perkin Elmer). The reaction buffer consisted of 50 mM MES pH 6.0, 2 mM DTT, 0.1% CHAPS, 3 mM NADPH, 10% Glycerol (v/v), 850 nM 4-Androstene-3,17-Dione, and 50 nM [3H]4-Androstene-3,17-Dione (Specific Activity 70–110Ci/mmol). Compounds were diluted such that the final concentration of ethanol and DMSO would not exceed 3% (v/v) and 1% (v/v) respectively, corresponding to concentrations that had little or no effect on enzymatic activity (data not shown). Previously prepared and frozen 17β-HSD3 enzyme was diluted into ice cold buffer containing 50 mM Mes, 40 mM KCl, 2 mM DTT, 1 mM EDTA, and 10% glycerol (v/v) and added last to the reaction mixture. The reaction was allowed to proceed for 60 minutes at room temperature and was stopped by the addition of 10 μL of 0.1N HCl. After the reactions were stopped, an excess of the anti-T/SPA Beads (0.5 mg) were added to each well to a final volume of 200 μL. The plates were sealed and shaken at ˜200 rpm on an orbital shaker at room temp for at least 90 minutes or overnight at 4° C. After allowing the beads to settle, the amount of [3H]Testosterone produced in each well was determined by scintillation counting on a Perkin Elmer TopCount instrument and collected as DPMs. The data was then analyzed and percent inhibition and/or IC50 values, based on 10 point serially diluted curves in duplicate or triplicate, were calculated using Microsoft Excel and XLFit programs. […] Input samples and unbound supernatants, from the enzymatic reactions, were quantitated by scintillation counting to aid in the calculation of bound versus free testosterone produced. Km values were calculated using the Lineweaver-Burke formula and plots where 1/v=(Km+[s])/(Vmax [s]). […]
For orientation: In a scintillation proximity assay essentially only radioactivity close to the scintillant gives light.

The target of series [2] is T1, 17β-HSD3. In words: 17β-HSD3 SEAP assay (PSA reporter) in MDA MB 453/17β-HSD3 cells. Type of series: cell-based. Also noted: expressed in transfected cells. As for the experimental part: Cultured MDA MB 453/17β-HSD3 cells were trypsinized, spun at 1000 rpm for 10 minutes, and resuspended in DMEM/10% cFBS supplemented with 5 mM BES at a concentration of 4×10^7 cells per mL. The cells (aliquots of 1×10^7 cells) were then transiently transfected with 3 μg of the PSA-SEAP construct by electroporation at 0.22 kVolts and 960 μFD with a time constant of […]. After a short recovery period, the cells were spun down and resuspended in DMEM/10% cFBS and plated into 96-well tissue culture plates (5×10^5 cells per well in 50 μL). After overnight adherence, the compounds were diluted in DMEM/10% and cFBS was added to the cells. 24 hours later, the medium was removed, fresh media containing the compounds was added in the presence of 10 nM Androstenedione, and this mixture was allowed to incubate for 24 hours. 25 μL of the culture supernatant was then removed and plated into 96-well black Optiplates (Perkin Elmer) for SEAP measurement as described by the reagent manufacturer (Tropix). Briefly, the supernatant was heat inactivated at 65° C. for 30 minutes and then allowed to cool to room temperature. Assay buffer (25 μL, Tropix) was then added and allowed to mix for 5 minutes followed by the addition of the Reaction buffer (25 μL, Tropix) and the plates were then incubated for 20 minutes in the dark. Plates were then read using a Packard Instruments TopCount with luminescent detection and signal was captured for 10 seconds per well and photon emission (cps) was averaged. A standard MTS assay (Promega) as described by the manufacturer, was performed in parallel to normalize the data based on cell numbers. Data analysis including percent inhibition and IC50 determination, based on 10 point serially diluted curves in duplicate, was then performed using Microsoft Excel and XLFit.
The analysis of 17β-HSD3 steroid conversion by TLC is hampered by the limitation to examine large numbers of compounds. […] To test this system, a prostate specific antigen (PSA) reporter plasmid was transfected into MDA-MB453 cells stably expressing 17β-HSD3 and stimulated with different concentrations of androstenedione (FIG. 5B).
To evaluate the suitability of this cellular assay for monitoring 17β-HSD3 cell based activity, the inhibitory effects of 18β-glycyrrhetinic acid and […] were examined.

Series [3] deals with T1, 17β-HSD3. The arrangement: made in house; CHAPS-solubilised 100,000 x g supernatant. Particulars: read-out: Km for androstenedione, previously published value; human 17β-HSD3 prepared from testes microsomal fractionation; cited from earlier work.
Substrate in series [4]: C[C@]12CCC(=O)C=C1CC[C@@H]1[C@@H]2CC[C@]2(C)C(=O)CC[C@@H]12
In words: 17β-HSD3 scintillation proximity assay (SPA). Type of series: biochemical, human. The note with it: other: 17β-HSD3 from HEK293 transfectants; 0.01 to 10 μM input androstenedione; 3 mM NADPH. On the procedure: as §1, with “The crude lysate was then incubated on ice for 60 minutes to allow for membrane protein solubilization, followed by centrifugation at 100,000×g for 60 minutes at 4° C. The supernatant was then removed and dialyzed overnight at 4° C. against the enzyme storage buffer (40 mM Tris-HCl pH 7.5, 40 mM KCl, 2 mM DTT, 1 mM EDTA, 20% Glycerol (v/v), Complete Tab(s)).” left out
SPA beads conjugated to anti-mouse IgG were incubated overnight in SPA Bead Buffer (50 mM Tris pH 8.0, 10% Glycerol (v/v)), with anti-Testosterone monoclonal antibody (2 μg antibody per 1 mg of SPA beads) under gentle rotation. […] After allowing the beads to settle, the amount of [3H]Testosterone produced in each well was determined by scintillation counting on a Perkin Elmer TopCount instrument and collected as DPMs. The data was then analyzed and percent inhibition and/or IC50 values, based on 10 point serially diluted curves in duplicate or triplicate, were calculated using Microsoft Excel and XLFit programs. […]

In general, Km refers to the concentration of substrate that gives half-maximal velocity. `NC(=O)C1=CN([C@@H]2O[C@H](COP(=O)(O)OP(=O)(O)OC[C@H]3O[C@@H](n4cnc5c(N)ncnc54)[C@H](OP(=O)(O)O)[C@@H]3O)[C@@H](O)[C@H]2O)C=CC1` [NADPH]: the Michaelis-Menten constant (Km) on 17β-HSD3 [1] (Lineweaver-Burke plots, read-out: Km for NADPH) was found to be 30 µM.

Consider `C[C@]12CCC(=O)C=C1CC[C@@H]1[C@@H]2CC[C@]2(C)C(=O)CC[C@@H]12` [androstenedione], for which the “induction of PSA reporter” value on 17β-HSD3 [2] was 9 fold; on 17β-HSD3 [2] (1 μM androstenedione, 17β-HSD3-MDA-MB453 cells) it was 25 fold. The “activation of PSA reporter” value at 17β-HSD3 [2] (12 nM androstenedione, 17β-HSD3-MDA-MB453 transfectants) stood at 9 fold. For the same molecule, on 17β-HSD3 [3], the Km is 0.72 µM.

For `CC(C)(O)C(=O)Nc1ccc([N+](=O)[O-])c(C(F)(F)F)c1` [hydroxyflutamide], the “17β-HSD3 inhibitory activity in the SPA” value at 17β-HSD3 [1] (FIG. 3B) was “did not display 17β-HSD3 inhibitory activity”.

B1: human 17β-HSD3 (Homo sapiens) (protein)
chain: MGDVLEQFFILTGLLVCLACLAKCVRFSRCVLLNYWKVLPKSFLRSMGQWAVITGAGDGIGKAYSFELAKRGLNVVLISRTLEKLEAIATEIERTTGRSVKIIQADFTKDDIYEHIKEKLAGLEIGILVNNVGMLPNLLPSHFLNAPDEIQSLIHCNITSVVKMTQLILKHMESRQKGLILNISSGIALFPWPLYSMYSASKAFVCAFSKALQEEYKAKEVIIQVLTPYAVSTAMTKYLNTNVITKTADEFVKESLNYVTIGGETCGCLAHEILAGFLSLIPAWAFYSGAFQRLLLTHYVAYLKLNTKVR
notes: made in house; CHAPS-solubilised 100,000 x g supernatant
Consider B1, for which the Km in series [4] came out at 0.92 µM.
